The values below come from BindingDB's records for doi:10.7270/Q2ZC817P (The Scripps Research Institute Molecular Screening Center, 2007).

A word on the EC50: it is the concentration giving half of the maximal effect.

Chain of Sphingosine 1-phosphate receptor 1 (P21453 whole entry): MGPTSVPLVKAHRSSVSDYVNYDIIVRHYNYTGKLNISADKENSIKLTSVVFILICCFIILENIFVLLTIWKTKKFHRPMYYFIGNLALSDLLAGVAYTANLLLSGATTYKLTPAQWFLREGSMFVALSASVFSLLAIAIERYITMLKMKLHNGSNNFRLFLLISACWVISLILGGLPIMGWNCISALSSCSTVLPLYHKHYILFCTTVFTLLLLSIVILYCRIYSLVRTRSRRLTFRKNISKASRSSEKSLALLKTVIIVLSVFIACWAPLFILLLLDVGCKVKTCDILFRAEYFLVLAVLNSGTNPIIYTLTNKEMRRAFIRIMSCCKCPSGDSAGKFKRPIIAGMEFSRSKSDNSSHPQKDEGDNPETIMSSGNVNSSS

The first assay has as its target Sphingosine 1-phosphate receptor 1 (Homo sapiens, UniProt P21453). The assay is described as follows: S1P1 agonism potentiation – cell-based, potentiator mode, 60K MLSMR set, dose response (AID 466).
Settings: not given
Turning to `CCCN(C(=O)c1cccs1)c1nnc(-c2ccncc2)s1` [MLS000074637], the concentration for a half-maximal effect (EC50) turned out to be 2.96 µM.

Consider `Cc1cc(C(=O)N2CCN(C(c3ccccc3)c3ccccc3)CC2)on1` [(4-benzhydrylpiperazin-1-yl)-(3-methyl-1,2-oxazol-5-yl)methanone], for which the EC50 came out at 5.65 µM.

Consider `C=C(C)COc1ccc(-c2nc(N)nc(C)c2Oc2ccccc2OC)c(O)c1` [(6E)-6-[2-amino-5-(2-methoxyphenoxy)-6-methyl-1H-pyrimidin-4-ylidene]-3-(2-methylallyloxy)cyclohexa-2,4-dien-1-one], for which the EC50 was 2.79 µM.

`Cc1cccc(OCCCCc2c(C)n[nH]c2C)c1C` [SMR000103133]: the EC50 amounted to 4.86 µM.

Regarding `Cc1noc(/C=C/N(C)C)c1S(=O)(=O)N1CCN(c2ccccc2)CC1` [(E)-N,N-dimethyl-2-[3-methyl-4-(4-phenylpiperazin-1-yl)sulfonyl-1,2-oxazol-5-yl]ethenamine], the EC50 was greater than 95 µM.

For the compound `CCN(C(=O)c1ccc(C(C)(C)C)cc1)c1nnc(Cn2nnc3ccccc32)s1` [MLS000072751], the EC50 was 1.82 µM.

Consider `CCOC(=O)c1ccc2c(c1)C(=O)N(C1CCCCC1)C2=O` [2-cyclohexyl-1,3-diketo-isoindoline-5-carboxylic acid ethyl ester], for which the half-maximal effective concentration (EC50) was greater than 95 µM.

On to `c1ccc(-c2ccc(-c3nc(-c4cccnc4)no3)cc2)cc1` [5-(4-phenylphenyl)-3-(3-pyridinyl)-1,2,4-oxadiazole], for which the EC50 was determined as 1.91 µM.

For the compound `COCCn1c(C)cc(C(=O)CSc2nc3ccccc3o2)c1C` [2-(1,3-benzoxazol-2-ylsulfanyl)-1-[1-(2-methoxyethyl)-2,5-dimethyl-pyrrol-3-yl]ethanone], the EC50 is greater than 95 µM.

As for `Cc1[nH]nc2c1C1(C(=O)N(Cc3ccc(Cl)cc3)c3ccccc31)C(C#N)C(=N)O2` (stereo not drawn) [6-amino-1'-[(4-chlorophenyl)methyl]-3-methyl-2'-oxo-5-spiro[2H-pyrano[2,3-c]pyrazole-4,3'-indole]carbonitrile], the concentration giving a half-maximal response (EC50) worked out at 43.6 µM.

As to `CCOc1nc(C)ccc1-c1noc(-c2ccncc2)n1` [2-ethoxy-6-methyl-3-[5-(4-pyridinyl)-1,2,4-oxadiazol-3-yl]pyridine], the 50% effective concentration (EC50) is 6.59 µM.

Still in this assay, the particulars now being: inactive by the depositor's call.
As for `CCCOC(=O)c1[nH]c2c(c1C)C(=O)CC(c1cc(OC)c(OC)c(OC)c1)C2` (stereo not drawn) [MLS000116504], the EC50 turned out to be 12.9 µM.

With `CCCCOc1ccc(S(=O)(=O)n2c(C)nc3ccccc32)cc1` [1-(4-butoxyphenyl)sulfonyl-2-methyl-benzimidazole], the EC50 is 28.9 µM.

On to `Cc1ccccc1CS(=O)(=O)c1nnc([C@H](CC(C)C)NC(=O)OC(C)(C)C)o1` [SMR000044673], for which the EC50 is 10.1 µM.

`Cc1cccc(OCCCCc2c(C)n[nH]c2C)c1` [SMR000103102]: the EC50 worked out at 10.6 µM.

On to `CN(CC1CCCO1)S(=O)(=O)c1ccc(C(=O)Nc2nc(-c3ccccn3)cs2)cc1` (stereo not drawn) [4-[methyl(2-oxolanylmethyl)sulfamoyl]-N-[4-(2-pyridinyl)-2-thiazolyl]benzamide], for which the 50% effective concentration (EC50) amounted to 24 µM.

As to `C=CCn1c(SCC(=O)c2cccs2)nc2sc(CC)cc2c1=O` [3-allyl-6-ethyl-2-[[2-keto-2-(2-thienyl)ethyl]thio]thieno[2,3-d]pyrimidin-4-one], the concentration for a half-maximal effect (EC50) stood at 38.8 µM.

As for `COc1cccc(-c2nc(-c3ccc(NC(=O)c4cccnc4)cc3)no2)c1` [MLS000047254], the half-maximal effective concentration (EC50) was found to be 22.1 µM.

For `Cc1ccc2[nH]c3c(NCc4ccco4)ncnc3c2c1` [MLS000040855], the EC50 came to 10.8 µM.

`Cc1n[nH]c(C)c1N1C(=O)c2cccc3c(N4CCCCCC4)ccc(c23)C1=O`: the EC50 was determined as 12.5 µM.

Regarding `CN1c2ccccc2C(C)(C)C12C=Cc1cc(O)ccc1O2` (stereo not drawn) [1',3',3'-trimethyl-6-spiro[1-benzopyran-2,2'-indole]ol], the EC50 amounted to 12.3 µM.

`CCCC(=O)Nc1ccc(-c2nc3cc(C)c(C)cc3o2)cc1` [MLS000089940]: the EC50 is 10.8 µM.

For `CC(=O)c1sc(NC(=O)C2(F)C(F)(F)C(F)(F)C(F)(F)C(F)(F)C2(F)F)nc1C` [MLS000040071], the concentration for a half-maximal effect (EC50) was found to be 31.1 µM.
